Test results published in patent US6645495B1, “Compositions of saponin adjuvants and excipients” (Antigenics, Inc., priority 1997, dated 2003).

Legend:
[1] = cited from earlier work
sheep red blood cells = conditions: cited from earlier work; for concentration causing hemolysis of sheep red blood cells: substantially pure saponin
[2] = in words; cited from earlier work
[3] = aqueous shelf life of QS-21 solution at 4° C. (t90); format: physicochemical
Experimental: Product stability is another concern for QS-21 containing compositions. The shelf life of a vaccine product is typically defined by the extent of time to reach a defined and acceptable low level of degradation (such as, the time to 10% degradation, also known as t90). Most commercial vaccine products have a shelf life of at least 18 to 24 months when stored in the refrigerator at 4° C. Adjuvants, which are essential components of vaccines, therefore must also have equally long shelf lives. However, the shelf life of a 50 μg/ml solution of QS-21 at pH 7.0 at 4° C. is reached in about 3 months. The reason for the short shelf life is because the ester bond of QS-21 is increasingly labile at increasing pH and because monomers of QS-21, as opposed to micelles, are subject to hydrolysis. The need to stabilize compositions of QS-21 adjuvant is significant.
This is representative of a typical clinical vaccine formulation containing QS-21 adjuvant (which consists of QS-21 at a concentration of 50-200 μg/ml in a-physiological pH buffer (pH 7.0-7.5)). […] Some improvement in stability, however, can be achieved by an increased concentration of the QS-21 product. […] But a concentrated QS-21 solution is not necessarily a practical method of administering a low dose of adjuvant. For example, administration of 25 μg from a 500 μg/ml solution would require the syringe withdrawal of 0.05 ml of dose. Additionally, some improved stability can be achieved by the use of a lower pH, i.e., at pH 6.0. However, a pH substantially lower than the physiological pH range may not be tolerated well or be compatible with the antigen.

Balb/c mice = assay: adjuvant potency: anti-OVA IgG2a response of immunized Balb/c mice (EIA); format: in vivo
Experimental: FIGS. 1A and 1B show the effect of Polysorbate 40, Polysorbate 60, Polysorbate 80, and methyl-β-cyclodextrin on the immune response of Balb/c mice to OVA plus various doses of QS-21. Female mice (10/group, 8-10 weeks of age at the first immunization) were immunized subcutaneously with 5 μg of OVA and the indicated dose of QS-21 in either PBS alone or in 2 mg/ml excipient in PBS. A booster immunization was given by the same route at week 2. Sera was collected at week 4 for EIA analysis of the anti-OVA response. Mice were analyzed for OVA-specific IgG2a by a standard EIA analysis.

[4] = earlier clinical trials: pain after injection of QS-21 in simple buffer; format: in vivo, humans; conditions: QS-21 in saline or PBS, some individuals
Source text: This pain, described by most individuals as a burning pain, may be a secondary reaction correlated with the lytic effect of the QS-21 adjuvant. Patient pain is likewise an objectionable property for a composition.

C57BL/6 mice = conditions: antigen ovalbumin, cited from earlier work
[5] = test system: New Zealand white rabbits; conditions: cited from earlier work

t90 (shelf life, time to 10% degradation) ([3]; 50 μg/ml QS-21, pH 6.0)	t90 (shelf life, time to 10% degradation) ([3]; 50 μg/ml QS-21, pH 7.0, 4° C.)	shelf life ([3]; 500 μg/ml QS-21, pH 7.0, 4° C.)	t90 (shelf life, time to 10% degradation) ([3]; 500 μg/ml QS-21, pH 7.0, 4° C.)	pain after injection [4]	Substance	critical micellar concentration in phosphate buffered saline [1]	critical micellar concentration in water [1]	concentration causing hemolysis of sheep red blood cells (sheep red blood cells)	immune adjuvant activity [2]	adjuvant activity (threshold dose) relative to PBS (Balb/c mice; 5 μg OVA s.c., boost week 2, sera week 4, 2 mg/ml Polysorbate 40, 60, 80 or methyl-β-cyclodextrin in PBS)	optimum adjuvant dose (Balb/c mice; QS-21 dose, OVA-specific IgG2a, Balb/c mice)	maximum level of antibody response (Balb/c mice; at optimum adjuvant dose, excipients versus PBS)	critical micellar concentration ([1]; in PBS (Soltysik 1995))	threshold dose for antibody (C57BL/6 mice; in PBS (Kensil 1993))	threshold dose for CTL (C57BL/6 mice; in PBS (Newman 1992))	concentration at which hemolysis occurs (sheep red blood cells; simple buffer such as saline or PBS (Kensil 1991))	creatine kinase (marker for muscle damage) ([5]; after injection with QS-21 in saline or PBS)	injection site histopathology ([5]; intramuscular QS-21/saline solutions, some animals (Kensil 1995))
–	–	–	–	–	QS-18	~0.02 % (w/v)	approximately 0.04 % (w/v)	≥ 25000 ng/mL	having immune adjuvant activity	–	–	–	–	–	–	–	–	–
–	–	–	–	–	QS-17	~0.03 % (w/v)	approximately 0.06 % (w/v)	≥ 25000 ng/mL	having immune adjuvant activity	–	–	–	–	–	–	–	–	–
679 days	94 days	23.9 months	717 days	immediate, transient pain	QS-21	~0.02 % (w/v)	approximately 0.03 % (w/v)	≥ 25000 ng/mL	having immune adjuvant activity	active in all excipients within two fold of the threshold value determined in PBS	≥ 10 µg	same maximum level of antibody response was reached	approximately 50 μg/ml	2.5 µg	2.5 µg	5000 to 7000 ng/mL	increased	mild to moderate fibroblast damage or necrosis
